“And” between values parts separate entries of the source, which are not always exact repeats. Equal values may be shown once.
Key:
[1] = system: ct-DNA; experiment: CD absorption spectrometry assay with ct-DNA; assay type: binding; conditions: ct-DNA 1×10^−4 M, [DNA]/[compound] 10:0.5 to 10:2.0
[2] = system: HepG2; experiment: MTT assay, HepG2 cells

## COc1cc2ccnc3c2c(c1OC)-c1ccccc1C3=O.COc1cc2ccnc3c2c(c1OC)-c1ccccc1C3=O.COc1cc2ccnc3c2c(c1OC)-c1ccccc1C3=O.ClC(Cl)Cl.ClC(Cl)Cl.ClC(Cl)Cl.[Mn+2].[O-][Cl+3]([O-])([O-])[O-].[O-][Cl+3]([O-])([O-])[O-] [Complex 3, [Mn(LY)3](ClO4)2·3CHCl3]
[1]
  change of CD spectrum of ct-DNA / binding: significant hypochromism in both the negative and the positive bands
[2]; 20 μmol/L, 48 h
  inhibitive ratio Hep-G2: 62.99±0.43% and 62.99%
[2]; HepG2 cells
  fold increase of cytotoxicity (IC50) comparing with the free LY ligand: 1.6–3.2 fold
[2]; read-out: IC50 HepG2, MTT, 48 h, mean ± SD from five independent experiments
  IC50: 14.5 ± 0.69 µM

Reference: PMC5601738, “Facile total synthesis of lysicamine and the anticancer activities of the Ru^II, Rh^III, Mn^II and Zn^II complexes of lysicamine” (Oncotarget, 2017)
